Converted amounts (≈) assume the structure as drawn.
Experiments:
[1] = Lipophilicity, log D of compound in buffer/octanol at pH 7.4 by shake flask method; assay type: physicochemical
CDK9/cyclin T1 = CDK9/cyclin T1 (Homo sapiens, UniProt P50750); assay: Inhibition of recombinant full length human N-terminal GST-fused CDK9 (1 to 372 residues)/His-tagged CyclinT1 (1 to 726 residues) expressed in baculovirus infected insect cells using FITC-X-GSRTPMY-NH2 as substrate preincubated for 10 mins followed by MgCl2 addition and measured after 90 mins in presence of 5 mM ATP by mobility shift assay
[2] = Intrinsic clearance in rat cryopreserved hepatocytes assessed per million cells […]; assay type: ADME, cell-based, Hepatocyte; conditions: for hepatocyte CLint: cryopreserved hepatocytes, read-out: CLH
[3] = Intrinsic clearance in human liver microsome; assay type: ADME, microsomes; conditions: for microsomal CLint: liver microsomes, read-out: CLH
[4] = target: T1, Cyclin-dependent kinase 9 (Homo sapiens, UniProt P50750); assay: Inhibition of CDK9 in human MV4-11 cells assessed as induction of caspase-3/7 activation measured after 6 hrs followed by Caspase-glo reagent based assay; assay type: cell-based
[5] = target: T1, Cyclin-dependent kinase 9; assay: Inhibition of CDK9 in human MCF7 cells assessed as reduction in RNA Polymerase 2 CTD phosphorylation at Ser2 residues measured after 6 hrs by immunofluorescence assay; assay type: cell-based
[6] = Solubility of compound in phosphate buffer at pH 7.4 using dried form of sample; assay type: physicochemical
[7] = Intrinsic clearance in human cryopreserved hepatocytes assessed per million cells […]; assay type: ADME, cell-based, Hepatocyte; conditions: read-out: CLH
[8] = phosphate buffer, read-out: solubility

CDK9/cyclin T1, sequence (O60563 whole entry, the tested form may be a part): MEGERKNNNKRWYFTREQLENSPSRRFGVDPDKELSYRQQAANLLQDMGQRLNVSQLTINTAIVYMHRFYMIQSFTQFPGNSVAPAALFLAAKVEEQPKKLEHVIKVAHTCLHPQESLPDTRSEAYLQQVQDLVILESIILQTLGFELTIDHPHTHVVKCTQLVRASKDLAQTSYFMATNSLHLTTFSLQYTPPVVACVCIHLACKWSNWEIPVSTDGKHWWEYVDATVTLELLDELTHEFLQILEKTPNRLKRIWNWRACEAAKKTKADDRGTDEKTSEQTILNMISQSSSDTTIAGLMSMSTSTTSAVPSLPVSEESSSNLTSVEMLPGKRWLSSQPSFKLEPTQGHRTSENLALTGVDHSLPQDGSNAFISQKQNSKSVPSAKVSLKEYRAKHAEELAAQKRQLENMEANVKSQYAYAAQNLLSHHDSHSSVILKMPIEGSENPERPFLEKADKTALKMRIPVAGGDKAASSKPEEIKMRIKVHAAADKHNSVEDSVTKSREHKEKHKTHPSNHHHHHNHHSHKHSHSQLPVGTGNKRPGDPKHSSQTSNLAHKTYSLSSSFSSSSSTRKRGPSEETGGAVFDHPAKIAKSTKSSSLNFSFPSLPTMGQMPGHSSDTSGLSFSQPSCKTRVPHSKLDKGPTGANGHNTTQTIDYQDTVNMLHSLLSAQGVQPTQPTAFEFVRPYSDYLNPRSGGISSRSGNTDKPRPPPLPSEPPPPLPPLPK
CDK9/cyclin T1, sequence (P50750 whole entry, the tested form may be a part): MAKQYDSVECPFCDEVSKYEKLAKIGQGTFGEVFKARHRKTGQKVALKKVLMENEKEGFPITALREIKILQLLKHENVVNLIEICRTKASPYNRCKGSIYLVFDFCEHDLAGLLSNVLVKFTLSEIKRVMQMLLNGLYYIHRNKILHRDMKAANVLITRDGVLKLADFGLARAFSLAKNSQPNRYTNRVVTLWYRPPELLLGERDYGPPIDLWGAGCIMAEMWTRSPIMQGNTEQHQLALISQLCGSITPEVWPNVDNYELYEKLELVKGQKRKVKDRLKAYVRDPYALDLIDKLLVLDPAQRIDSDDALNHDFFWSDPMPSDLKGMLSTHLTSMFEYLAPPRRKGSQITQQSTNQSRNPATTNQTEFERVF
T1 sequence (P50750 whole entry): as the sequence (P50750 whole entry, the tested form may be a part) above

| Structure (SMILES) | logD [1] | IC50 (CDK9/cyclin T1) [nM] | hepatocyte CLint [2] [µL/min/1e6 cells] | microsomal CLint [3] [µL/min/mg] | EC50 [4] [nM] | IC50 [5] [nM] | solubility [6, 8] [µM] | hepatocyte CLint [7] [µL/min/1e6 cells] | solubility ([6]; buffer) [µM] | CLH ([2]; hepatocytes) [µL/min] | CLH ([3]; microsomes) [µL/min/mg] |
| --- | --- | --- | --- | --- | --- | --- | --- | --- | --- | --- | --- |
| CC(=O)N[C@@H]1CCC[C@H](C(=O)Nc2cc(-c3cnn4c3CN(C)CC4)c(Cl)cn2)C1 | 2.1 | 220 | 7.7 | < 3 | 910 | 800 | 870 (≈ 375 µg/mL) |  |  |  |  |
| CC(=O)N[C@@H]1CCC[C@H](C(=O)Nc2cc(-c3cnn4c3CC(C)(C)C4O)c(Cl)cn2)C1 (stereo not given in full) |  | 20 |  | 14 |  | 170 |  | 48 |  |  |  |
| CC(=O)N[C@@H]1CCC[C@H](C(=O)Nc2cc(-c3cnc4n3CCCC4)c(Cl)cn2)C1 | 2.7 | 660 | 12 | 16 | 1200 | 1200 | 600 (≈ 250 µg/mL) |  |  |  |  |
| CC(=O)N[C@@H]1CCC[C@H](C(=O)Nc2cc(-c3cnc(C)n3C(C)C)ccn2)C1 | 1.9 | 380 | 7.4 | 3.6 | 660 | 920 | 660 (≈ 253 µg/mL) |  |  |  |  |
| CC(=O)N[C@@H]1CCC[C@H](C(=O)Nc2cc(-c3cnc(C)n3C)c(Cl)cn2)C1 | 2.2 | 5300 |  |  |  | > 3000 | > 1000 |  |  |  |  |
| CC(=O)N[C@@H]1CCC[C@H](C(=O)Nc2cc(-c3cnn4c3COCC4)c(Cl)cn2)C1 | 2.4 | 1000 | 18 | < 3 | 1900 | 2100 | 220 (≈ 91.9 µg/mL) |  |  |  |  |
| CC(=O)N[C@@H]1CCC[C@H](C(=O)Nc2cc(-c3cnn4c3CC(C)C4)c(Cl)cn2)C1 (stereo in doubt; 28) | 3.4 | 26 | 97 | 13 | 92 | 36 |  |  | 79 (≈ 32.9 µg/mL) |  |  |
| CC(=O)N[C@@H]1CCC[C@H](C(=O)Nc2cc(-c3cnc4n3CC(C)(C)C4)c(Cl)cn2)C1 | 3.6 |  | 28 | 63 |  |  | 280 (≈ 120 µg/mL) | 2.5 |  |  |  |
| CC(=O)N[C@@H]1CCC[C@H](C(=O)Nc2cc(-c3cnn4c3CC(C)(C)C4)c(C#N)cn2)C1 | 3.2 |  | 47 | 26 | 140 | 150 | 380 (≈ 160 µg/mL) | < 1 |  |  |  |
| CC(=O)N[C@@H]1CCC[C@H](C(=O)Nc2cc(-c3cnn4c3OCCC4)c(Cl)cn2)C1 | 2.6 | 110 | 34 | < 3 | 260 | 350 | 110 (≈ 46 µg/mL) |  |  |  |  |
| CC(=O)N[C@@H]1CC[C@H](C(=O)Nc2cc(-c3cnn4c3CC(C)(C)C4)c(Cl)cn2)C1 | 3.5 |  | 97 | 38 | 15 | 40 | 35 (≈ 14.6 µg/mL) | 5.8 |  |  |  |
| CC(=O)N[C@@H]1CCC[C@H](C(=O)Nc2cc(-c3cnn4ccccc34)c(Cl)cn2)C1 | 3.6 | 61 |  |  | 150 | 140 | 45 (≈ 18.5 µg/mL) |  |  |  |  |
| CC(=O)N[C@@H]1CCC[C@H](C(=O)Nc2cc(-c3cnc4ccccn34)c(Cl)cn2)C1 | 3 | 750 |  |  |  | 1600 | 120 (≈ 49.4 µg/mL) |  |  |  |  |
| CC(=O)N[C@@H]1CCC[C@H](C(=O)Nc2cc(-c3cnn4c3CC(C)(C)C4)c(C)cn2)C1 | 3.1 |  | 53 | 19 |  |  | 600 (≈ 246 µg/mL) |  |  |  |  |
| CC(=O)N[C@@H]1CCC[C@H](C(=O)Nc2cc(-c3cnn4c3CCCC4)ccn2)C1 | 2.4 | 230 | 33 | < 3 | 440 | 520 | 730 (≈ 278 µg/mL) |  |  |  |  |
| CC1(C)Cc2c(-c3cc(NC(=O)[C@H]4C[C@@H](O)C4)ncc3Cl)cnn2C1 | 3.2 |  | 157 | 25 | 38 | 44 | 15 (≈ 5.41 µg/mL) | 106 |  |  |  |
| CC(=O)N[C@@H]1CCC[C@H](C(=O)Nc2cc(-c3cnn4c3CCCC4)c(F)cn2)C1 | 2.9 |  | 73 | < 3 | 160 | 100 | > 1000 |  |  |  |  |
| CC(=O)N[C@@H]1CCC[C@H](C(=O)Nc2cc(-c3cnn4c3CCCCC4)c(Cl)cn2)C1 | 3.6 |  | 51 | 39 | 180 | 92 | 104 (≈ 44.7 µg/mL) | 4.6 |  |  |  |
| CC(=O)N[C@@H]1CCC[C@H](C(=O)Nc2cc(-c3cnc4n3CCC4)c(Cl)cn2)C1 | 2.6 | 310 | 19 | 9.7 | 700 | 760 | 490 (≈ 197 µg/mL) |  |  |  |  |
| CC(=O)N[C@@H]1CCC[C@H](C(=O)Nc2cc(-c3cnn4c3CC(C)(C)CC4)ccn2)C1 | 3.1 |  | 35 | 29 | 39 | 48 | 640 (≈ 262 µg/mL) | 4.3 |  |  |  |
| CC(=O)N[C@@H]1CCC[C@H](C(=O)Nc2cc(-c3nnn4c3CCCC4)c(Cl)cn2)C1 | 2 | 4400 |  |  |  | > 2600 | 530 (≈ 221 µg/mL) |  |  |  |  |
| CC(=O)N[C@@H]1CCC[C@H](C(=O)Nc2cc(-c3cnn4c3CCC4)c(Cl)cn2)C1 | 2.9 | 180 | 72 | < 3 | 330 | 530 | 160 (≈ 64.3 µg/mL) |  |  |  |  |
| CC(=O)N[C@@H]1CCC[C@H](C(=O)Nc2cc(-c3cnn4c3CC(C)(C)C4)ccn2)C1 | 2.8 | 29 | 45 | < 3 | 100 | 150 | 970 (≈ 384 µg/mL) | < 1 |  |  |  |
| CC(=O)N[C@@H]1CCC[C@H](C(=O)Nc2cc(-c3cnn4c3CC(C)C4)c(Cl)cn2)C1 (stereo in doubt; 27) |  | 27 |  |  | 77 | 77 |  |  | 159 (≈ 66.1 µg/mL) | 85 | 18 |
| CC(=O)N[C@@H]1CCC[C@H](C(=O)Nc2cc(-c3cnn4c3NCCC4)c(Cl)cn2)C1 | 2.4 |  | 10 | 6.2 | 670 | 860 | 860 (≈ 359 µg/mL) |  |  |  |  |
| CC(=O)N[C@@H]1CCC[C@H](C(=O)Nc2cc(-c3cn[nH]c3CC(C)(C)CO)c(Cl)cn2)C1 |  |  |  | 24 |  | > 2300 |  | < 1 |  |  |  |
| CC(=O)N[C@@H]1CCC[C@H](C(=O)Nc2cc(-c3cnn4c3CC(C)(C)CC4)c(F)cn2)C1 | 3.6 | < 3 | 42 | 178 | 15 | 10 | 160 (≈ 68.4 µg/mL) | 23 |  |  |  |
